Measured values published in patent publication US20250302080A1, “SWEETNESS AND/OR FLAVOR ENHANCER” (AJINOMOTO CO., INC., priority 2022, published 2025).

How the values were obtained:
[1] = Sensory evaluation of sweetness intensity in orange drink (Experimental Examples 1-5); conditions: added alone, score (average) of 3.0 points or more
Method: A negative control orange drink was prepared by diluting an orange drink (product name: Bireley's Orange, 20% wt % orange juice, Asahi Soft Drinks Co., Ltd.) 1.2 times with filtered water.
When the carbohydrate content of Bireley's Orange is calculated as the total sucrose content, the negative control orange drink contains 9.17 g of sucrose per 100 g.
(§1) A sensory evaluation of sweetness intensity was performed for each sample by a panel of four experts according to the following evaluation criteria.
(§2) Sweetness intensity was evaluated by 0.0 to 10.0 point based on the following reference samples (negative control (hereinafter referred to as NC) (0.0 point); reference 1 (hereinafter referred to as R1) (5.0 points); reference 2 (hereinafter referred to as R2) (10.0 points)). The average score (rounded to two decimal places) of each expert panelist was calculated. An average score of 3.0 points or more was considered to be functional. • NC (0.0 point): orange drink (trade name: Bireley's Orange, Asahi Soft Drinks Co., Ltd.) diluted 1.2 times with filtered water (i.e., negative control orange drink). • R1 (5.0 points): with 0.46 g of sucrose added per 99.54 g of NC. • R2 (10.0 points): with 0.92 g of sucrose added per 99.08 g of NC.
A sensory evaluation of sweetness intensity was performed for each sample by a panel of four experts according to the same evaluation criteria as in Experimental Example 1.

[2] = Sensory evaluation of sweetness intensity in aspartame solution (Experimental Example 11); conditions: added alone, 3.0 points or more
Method: A negative control aspartame solution (0.063 wt % aspartame solution) was prepared by dissolving aspartame in filtered water.
A sensory evaluation of sweetness intensity was performed for each sample by a panel of three experts according to the following evaluation criteria.
Sweetness intensity was evaluated by 0.0 to 10.0 points based on the following reference samples (negative control (hereinafter referred to as NC) (0.0 point); reference 1 (hereinafter referred to as R1) (5.0 points); reference 2 (hereinafter referred to as R2) (10.0 points)). The average score (rounded to two decimal places) of each expert panelist was calculated. An average score of 3.0 points or more was considered to be functional. • NC (0.0 point): 0.063 wt % aspartame solution (solvent: filtered water) • R1 (5.0 points): 0.066 wt % aspartame solution (solvent: filtered water) • R2 (10.0 points): 0.069 wt % aspartame solution (solvent: filtered water)

[3] = Sensory evaluation of orange flavor intensity in orange drink (Experimental Example 13); conditions: added alone, 3.0 points or more
Method: A negative control orange drink was prepared by the same method as in Experimental Example 1.
A sensory evaluation of orange flavor intensity was performed for each sample by a panel of three experts according to the following evaluation criteria.
as §2, with “Orange flavor” for “Sweetness”, “Orange)” for “Orange, Asahi Soft Drinks Co., Ltd.)”

[4] = Sensory evaluation of sweetness intensity in yogurt drink (Experimental Example 14); conditions: added alone, 3.0 points or more
Method: (§3) Yogurt drink (product name: 7 Premium Yogurt Drink, SEVEN-ELEVEN JAPAN CO., LTD.) was diluted 1.2 times with filtered water to prepare negative control yogurt drink.
(§4) When the carbohydrate content of 7 Premium Yogurt Drink is calculated as the total sucrose content, the negative control yogurt drink contains 10.75 g of sucrose per 100 g.
(§5) A sensory evaluation of sweetness intensity and yogurt flavor intensity was performed for each sample by a panel of three experts according to the following evaluation criteria.
(§6) Sweetness intensity and yogurt flavor intensity were each evaluated by 0.0 to 10.0 point based on the following reference samples (negative control (hereinafter referred to as NC) (0.0 point); reference 1 (hereinafter referred to as R1) (5.0 points); reference 2 (hereinafter referred to as R2) (10.0 points)). The average score (rounded to two decimal places) of each expert panelist was calculated. An average score of 3.0 points or more was considered to be functional. • NC (0.0 point): yogurt drink (product name: 7 Premium Yogurt Drink, SEVEN-ELEVEN JAPAN CO., LTD.) diluted 1.2 times with filtered water. • R1 (5.0 points): with 0.54 g of sucrose added per 99.46 g of NC. • R2 (10.0 points): with 1.08 g of sucrose added per 98.92 g of NC.

[5] = Sensory evaluation of yogurt flavor intensity in yogurt drink (Experimental Example 14); conditions: added alone, 3.0 points or more
Method: as §3, §4, §5, §6

[6] = Sensory evaluation of sweetness intensity in sucrose solution (Experimental Examples 25-27); conditions: added alone, 3.0 points or more
Method: A negative control sucrose solution (0.7 wt % sucrose solution) was prepared by dissolving sucrose in filtered water.
as §1
Sweetness intensity was evaluated by 0.0 to 10.0 points based on the following reference samples (negative control (hereinafter referred to as NC) (0.0 point); reference 1 (hereinafter referred to as R1) (3.0 points), reference 2 (hereinafter referred to as R2) (5.0 points); reference 3 (hereinafter referred to as R3) (10.0 points)). The average score (rounded to two decimal places) of each expert panelist was calculated. An average score of 3.0 points or more was considered to be functional. • NC (0.0 point): 7.0 wt % sucrose solution (solvent: filtered water) • R1 (3.0 points): 7.3 wt % sucrose solution (solvent: filtered water) • R2 (5.0 points): 7.5 wt % sucrose solution (solvent: filtered water) • R3 (10.0 points): 8.0 wt % sucrose solution (solvent: filtered water)
A sensory evaluation of sweetness intensity was performed for each sample by a panel of four experts according to the same evaluation criteria as in Experimental Example 25.

| Compound | concentration at which a sweetness-enhancing effect was confirmed [1] | concentration at which a sweetness-enhancing effect was confirmed [2] | concentration at which an orange flavor-enhancing effect was confirmed [3] | concentration at which a sweetness-enhancing effect was confirmed [4] | concentration at which a yogurt flavor-enhancing effect was confirmed [5] | concentration at which a sweetness-enhancing effect was confirmed [6] |
| --- | --- | --- | --- | --- | --- | --- |
| CC(C)CCC(=O)O [4-methylpentanoic acid] | ≥ 10 ppb | 100 ppb | ≥ 10 ppb | ≥ 1 ppb | ≥ 0.1 ppb |  |
| CCCCCCCCCC(=O)O [decanoic acid] | ≥ 0.1 ppb | 10 ppb | ≥ 0.01 ppb | ≥ 0.1 ppb | ≥ 0.01 ppb | 10 ppb |
| CC1=C(O)C(=O)CC1 [cyclotene] | ≥ 0.1 ppb | 10 ppb | ≥ 10 ppb | ≥ 0.01 ppb | ≥ 0.01 ppb |  |
